Each compound was assayed against T1, full length human recombinant glucocorticoid receptor (Homo sapiens, UniProt P04150) (assay: Glucocorticoid Receptor Binding Assay (Glucocorticoid Receptor Competitor Assay far red kit, fluorescence polarization)). Settings: competition with fluorescent GR ligand Fluormone GS Far Red, 3 hours at 22° C., pH 7.4; Ki calculated from IC50 by Cheng-Prusoff.
T1 construct: It contains some partially purified full length human recombinant glucocorticoid receptor; purchased Panvera/Invitrogen PV4302
T1 sequence (P04150 1-777): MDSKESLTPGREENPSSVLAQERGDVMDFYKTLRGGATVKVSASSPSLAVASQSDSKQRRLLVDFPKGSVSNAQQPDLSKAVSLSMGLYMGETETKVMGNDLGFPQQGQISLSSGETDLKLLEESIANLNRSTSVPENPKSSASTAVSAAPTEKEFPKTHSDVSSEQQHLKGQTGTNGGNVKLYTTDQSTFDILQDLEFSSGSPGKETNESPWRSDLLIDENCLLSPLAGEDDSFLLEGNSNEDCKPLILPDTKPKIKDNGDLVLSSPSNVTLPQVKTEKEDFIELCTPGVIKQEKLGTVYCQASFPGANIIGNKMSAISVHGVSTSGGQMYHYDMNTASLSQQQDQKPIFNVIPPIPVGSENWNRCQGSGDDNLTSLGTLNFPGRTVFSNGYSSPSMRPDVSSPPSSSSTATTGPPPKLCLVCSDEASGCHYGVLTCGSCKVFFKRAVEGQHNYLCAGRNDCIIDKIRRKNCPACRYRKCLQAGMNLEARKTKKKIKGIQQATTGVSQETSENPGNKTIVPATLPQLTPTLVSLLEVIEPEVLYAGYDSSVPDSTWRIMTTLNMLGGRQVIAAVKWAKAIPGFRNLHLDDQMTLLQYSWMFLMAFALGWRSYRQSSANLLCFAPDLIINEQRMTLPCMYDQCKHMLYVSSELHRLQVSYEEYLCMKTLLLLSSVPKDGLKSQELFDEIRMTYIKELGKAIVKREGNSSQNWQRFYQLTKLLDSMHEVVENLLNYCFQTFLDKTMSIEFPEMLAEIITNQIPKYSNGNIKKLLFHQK
Method in brief: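 Compounds in serial dilution (from intermediate 4.2% DMSO stock) displace Fluormone GS Far Red from full-length human recombinant GR with stabilizing peptide, pH 7.4, incubated 3 hours at 22° C dark. Polarized fluorescence (610–660 nm) gives IC50 via sigmoidal fit, converted to Ki by Cheng-Prusoff.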
With `C[C@H](c1ccc(Oc2cnc(C(=O)O)cn2)cc1Cl)[C@@](O)(c1ccc2c(c1)n(C)c(=O)n2C)C(F)(F)F` (relative stereo) [Example 106, 5-{3-Chloro-4-[2-(1,3-dimethyl-2-oxo-2,3-dihydro-1H-benzoimidazol-5-yl)-3,3,3-trifluoro-2-hydroxy-1-methyl-propyl]-phenoxy}-pyrazine-2-carboxylic acid] the Ki was 5.2 nM.
`C[C@H](c1ccc(-c2ccc(C(=O)O)c(F)c2)cc1Cl)[C@@](O)(c1ccc2[nH]c(=O)[nH]c2c1)C(F)(F)F` (relative stereo) [Example 114, 3′-Chloro-3-fluoro-4′-[3,3,3-trifluoro-2-hydroxy-1-methyl-2-(2-oxo-2,3-dihydro-1H-benzoimidazol-5-yl)-propyl]-biphenyl-4-carboxylic acid] was tested, and the Ki was 354 nM.
In the case of `C[C@H](c1ccc(Br)cc1Cl)[C@@](O)(c1ccc2oc(=O)n(C)c2c1)C(F)(F)F` (relative stereo) [Example 116, 5-[2-(4-Bromo-2-chloro-phenyl)-1-hydroxy-1-trifluoromethyl-propyl]-3-methyl-3H-benzooxazol-2-one], the Ki is reported as 1 nM.
`COC(=O)c1ccc(-c2ccc([C@@H](C)[C@@](O)(c3ccc4oc(=O)n(C)c4c3)C(F)(F)F)c(Cl)c2)cc1F` (relative stereo) [Example 117, 3′-Chloro-3-fluoro-4′-[3,3,3-trifluoro-2-hydroxy-1-methyl-2-(3-methyl-2-oxo-2,3-dihydro-benzooxazol-5-yl)-propyl]-biphenyl-4-carboxylic acid methyl ester] showed a Ki of 2.2 nM.
With `CCOC(=O)c1cc(-c2ccc([C@H](C)[C@](O)(c3ccc4oc(=O)n(C)c4c3)C(F)(F)F)c(Cl)c2)ccc1F` (relative stereo) [Example 121, 3′-Chloro-4-fluoro-4′-[3,3,3-trifluoro-2-hydroxy-1-methyl-2-(3-methyl-2-oxo-2,3-dihydro-benzooxazol-5-yl)-propyl]-biphenyl-3-carboxylic acid ethyl ester] the Ki was 1.6 nM.
With `C[C@H](c1ccc(-c2ccc(F)c(C(=O)O)c2)cc1Cl)[C@@](O)(c1ccc2oc(=O)n(C)c2c1)C(F)(F)F` (relative stereo) [Example 122, 3′-Chloro-4-fluoro-4′-[3,3,3-trifluoro-2-hydroxy-1-methyl-2-(3-methyl-2-oxo-2,3-dihydro-benzooxazol-5-yl)-propyl]-biphenyl-3-carboxylic acid] the Ki was 0.5 nM.
`COC(=O)c1ccc(-c2ccc([C@@H](C)[C@@](O)(c3ccc4oc(=O)n(C)c4c3)C(F)(F)F)c(Cl)c2)cc1Cl` (relative stereo) [Example 123, 3,3′-Dichloro-4′-[3,3,3-trifluoro-2-hydroxy-1-methyl-2-(3-methyl-2-oxo-2,3-dihydro-benzooxazol-5-yl)-propyl]-biphenyl-4-carboxylic acid methyl ester] showed a Ki of 1.1 nM.
Work on `C[C@H](c1ccc(-c2ccc(C(=O)O)c(Cl)c2)cc1Cl)[C@@](O)(c1ccc2oc(=O)n(C)c2c1)C(F)(F)F` (relative stereo) [Example 124, 3,3′-Dichloro-4′-[3,3,3-trifluoro-2-hydroxy-1-methyl-2-(3-methyl-2-oxo-2,3-dihydro-benzooxazol-5-yl)-propyl]-biphenyl-4-carboxylic acid] yielded a Ki of 0.3 nM.
Compound `COC(=O)c1ccc(-c2ccc([C@@H](C)[C@@](O)(c3ccc4oc(=O)n(C)c4c3)C(F)(F)F)c(Cl)c2)c(F)c1` (relative stereo) [Example 125, 3′-Chloro-2-fluoro-4′-[3,3,3-trifluoro-2-hydroxy-1-methyl-2-(3-methyl-2-oxo-2,3-dihydro-benzooxazol-5-yl)-propyl]-biphenyl-4-carboxylic acid methyl ester] has a Ki of 1 nM.
Compound `C[C@H](c1ccc(-c2ccc(C(=O)O)cc2F)cc1Cl)[C@@](O)(c1ccc2oc(=O)n(C)c2c1)C(F)(F)F` (relative stereo) [Example 126, 3′-Chloro-2-fluoro-4′-[3,3,3-trifluoro-2-hydroxy-1-methyl-2-(3-methyl-2-oxo-2,3-dihydro-benzooxazol-5-yl)-propyl]-biphenyl-4-carboxylic acid] has a Ki of 0.5 nM.
In the case of `C[C@H](c1ccc(-c2ccc(C(=O)O)cn2)cc1Cl)[C@@](O)(c1ccc2oc(=O)n(C)c2c1)C(F)(F)F` (relative stereo) [Example 128, 6-{3-Chloro-4-[3,3,3-trifluoro-2-hydroxy-1-methyl-2-(3-methyl-2-oxo-2,3-dihydro-benzooxazol-5-yl)-propyl]-phenyl}-nicotinic acid], the Ki is reported as 1.7 nM.
`CCOC(=O)COc1ccc(-c2ccc([C@@H](C)[C@@](O)(c3ccc4oc(=O)n(C)c4c3)C(F)(F)F)c(Cl)c2)cc1` (relative stereo) [Example 129, {3′-Chloro-4′-[3,3,3-trifluoro-2-hydroxy-1-methyl-2-(3-methyl-2-oxo-2,3-dihydro-benzooxazol-5-yl)-propyl]-biphenyl-4-yloxy}-acetic acid ethyl ester] showed a Ki of 1.1 nM.
In the case of `COC(=O)c1ccc(-c2ccc([C@@H](C)[C@@](O)(c3ccc4oc(=O)n(C)c4c3)C(F)(F)F)c(Cl)c2)cc1OC` (relative stereo) [Example 131, 3′-Chloro-3-methoxy-4′-[3,3,3-trifluoro-2-hydroxy-1-methyl-2-(3-methyl-2-oxo-2,3-dihydro-benzooxazol-5-yl)-propyl]-biphenyl-4-carboxylic acid methyl ester], the Ki is reported as 1.2 nM.
`C[C@H](c1ccc(Br)cc1Cl)[C@@](O)(c1ccc2c(c1)oc(=O)n2C)C(F)(F)F` (relative stereo) [Example 133, 6-[2-(4-Bromo-2-chloro-phenyl)-1-hydroxy-1-trifluoromethyl-propyl]-3-methyl-3H-benzooxazol-2-one] gave a Ki of 1.6 nM.
`C[C@H](c1ccc(-c2ccc(C(=O)O)c(F)c2)cc1Cl)[C@@](O)(c1ccc2c(c1)oc(=O)n2C)C(F)(F)F` (relative stereo) [Example 134, 3′-Chloro-3-fluoro-4′-[3,3,3-trifluoro-2-hydroxy-1-methyl-2-(3-methyl-2-oxo-2,3-dihydro-benzooxazol-6-yl)-propyl]-biphenyl-4-carboxylic acid] showed a Ki of 109 nM.
`C[C@H](c1ccc(-c2ccc(C(=O)O)c(Cl)c2)cc1Cl)[C@@](O)(c1ccc2c(c1)oc(=O)n2C)C(F)(F)F` (relative stereo) [Example 135, 3,3′-Dichloro-4′-[3,3,3-trifluoro-2-hydroxy-1-methyl-2-(3-methyl-2-oxo-2,3-dihydro-benzooxazol-6-yl)-propyl]-biphenyl-4-carboxylic acid] was tested, and the Ki was 154 nM.
`COC(=O)c1ccc(-c2ccc([C@H](C)[C@](O)(c3cc4c(cc3F)OCC(=O)N4C)C(F)(F)F)c(Cl)c2)cc1F` (relative stereo) [Example 136, 3′-Chloro-3-fluoro-4′-[3,3,3-trifluoro-2-(7-fluoro-4-methyl-3-oxo-3,4-dihydro-2H-benzo[1,4]oxazin-6-yl)-2-hydroxy-1-methyl-propyl]-biphenyl-4-carboxylic acid methyl ester] showed a Ki of 1.3 nM.
In the case of `COC(=O)c1ccc(Oc2ccc([C@H](C)[C@](O)(c3cc4c(cc3F)OCC(=O)N4C)C(F)(F)F)c(Cl)c2)cc1Cl` (relative stereo) [Example 138, 2-Chloro-4-{3-chloro-4-[3,3,3-trifluoro-2-(7-fluoro-4-methyl-3-oxo-3,4-dihydro-2H-benzo[1,4]oxazin-6-yl)-2-hydroxy-1-methyl-propyl]-phenoxy}-benzoic acid methyl ester], the Ki is reported as 0.6 nM.
In the case of `COC(=O)c1ccc(Oc2ccc([C@H](C)[C@](O)(c3cc(C)c(C#N)c(C)c3)C(F)(F)F)c(Cl)c2)cc1F` (relative stereo) [Example 141, 4-{3-Chloro-4-[2-(4-cyano-3,5-dimethyl-phenyl)-3,3,3-trifluoro-2-hydroxy-1-methyl-propyl]-phenoxy}-2-fluoro-benzoic acid methyl ester], the Ki is reported as 1.8 nM.
For `Cc1cc([C@@](O)([C@@H](C)c2ccc(Oc3ccc(C(=O)O)c(Cl)c3)cc2Cl)C(F)(F)F)cc(C)c1C#N` (relative stereo) [Example 144, 2-Chloro-4-{3-chloro-4-[2-(4-cyano-3,5-dimethyl-phenyl)-3,3,3-trifluoro-2-hydroxy-1-methyl-propyl]-phenoxy}-benzoic acid], the Ki was 2.5 nM.
`C[C@H](c1ccc(-c2ccc(C(=O)O)c(F)c2)cc1Cl)[C@@](O)(c1ccc(C#N)cc1)C(F)(F)F` (relative stereo) [Example 152, 3′-Chloro-4′-[2-(4-cyano-phenyl)-3,3,3-trifluoro-2-hydroxy-1-methyl-propyl]-3-fluoro-biphenyl-4-carboxylic acid] showed a Ki of 46.2 nM.
`C[C@H](c1ccc(-c2ccc(C(=O)O)c(F)c2)cc1Cl)[C@@](O)(c1cccc(C#N)c1)C(F)(F)F` (relative stereo) [Example 153, 3′-Chloro-4′-[2-(3-cyano-phenyl)-3,3,3-trifluoro-2-hydroxy-1-methyl-propyl]-3-fluoro-biphenyl-4-carboxylic acid] showed a Ki of 23.2 nM.

From patent US8450313B2, “2,3-diaryl- or heteroaryl-substituted 1,1,1-trifluoro-2-hydroxypropyl compounds” (Hoffmann-La Roche Inc., priority 2009, dated 2013)
